# Measured values published in article PMC12113356, “Novel Anti-MRSA Peptide from Mangrove-Derived Virgibacillus chiguensis FN33 Supported by Genomics and Molecular Dynamics” (Marine Drugs, 2025).
# Peptide text beside a SMILES is read from it.
# Key:
# S. aureus TISTR 517 [1] = experiment: Sytox Green uptake assay (membrane permeabilization); assay type: cell-based, Staphylococcus aureus; conditions: 10 µM Sytox Green, ex 504/em 523 nm, over 24 h
# Protocol: (§1) The Sytox Green uptake assay was conducted to assess membrane permeabilization associated with loss of membrane integrity. The fluorescence would be detected from a Sytox Green–DNA complex. […] Triton X-100 (0.125–2%) and an untreated sample were used as positive and negative controls, respectively. Fluorescence intensities were recorded 5 min before sample addition across all groups to ensure cell integrity prior to the experiment. […] For MRSA strain 2468, fluorescence intensity was higher than the positive control at the time of sample addition and remained concentration-dependent.
# (§2) The membrane permeabilization of bacterial cells was determined by the increase in fluorescence intensity caused by the Sytox Green–DNA complex. The fluorescence intensity was observed over time for 24 h. The inset graphs show the expanded view of the fluorescence baseline before sample addition and the fluorescence intensity during the initial 60 min after sample addition. The increase in fluorescence intensity over the entire treatment period was expressed as fold changes, comparing different sample concentrations to the untreated condition of S. aureus TISTR 517 (c) and MRSA strain 2468 (d).
# (§3) The Sytox Green uptake assay was performed to evaluate the disruption of cell membrane integrity induced by the AMP [67]. An overnight culture (16 h) of MRSA strain 2468 was harvested and washed three times with sterile PBS (pH 7.4) supplemented with 0.2% CAMHB as a diluent. The cell suspension was then diluted with the same diluent until the OD at 625 nm was 0.1 (1 × 10^8 CFU/mL). An aliquot (100 µL) of the diluted cells was added to each well, followed by incubation with 10 µM Sytox Green (Thermo Fisher Scientific Inc., Waltham, MA, USA) in the dark for 15 min. […] Triton X-100 (AppliChem GmbH, Darmstadt, Germany) was used as a positive control and prepared at final concentrations ranging from 0.125% to 2%. These concentrations were used to compare the level of cell membrane permeability induced by the AMP. Membrane permeability was assessed by measuring fluorescence intensity using a microplate reader (Thermo Scientific Inc., Waltham, MA, USA) at excitation and emission wavelengths of 504 nm and 523 nm, respectively, over a 24 h period following AMP addition. Significant differences in fluorescence intensity (p-value < 0.05) were analyzed using two-way ANOVA and Tukey’s post hoc test for multiple comparisons between treated and untreated conditions.
# MRSA strain 2468 [2] = experiment: as above; assay type: cell-based, Staphylococcus aureus; conditions: 10 µM Sytox Green, ex 504/em 523 nm, over 24 h
# Protocol: as §1, §2, §3
# S. aureus TISTR 517 [3] = experiment: Time-kill assay; assay type: cell-based, Staphylococcus aureus; conditions: for bacterial reduction rate: triplicate
# Protocol: (§4) The time–kill assay of FN33 AMP was conducted by measuring bacterial viability (log CFU/mL) at different time points. […] In the untreated group, bacterial growth increased over time, with a growth rate of 0.292 log CFU/h for S. aureus TISTR 517 and 0.2884 log CFU/h for MRSA strain 2468. […] However, complete eradication of S. aureus TISTR 517 was not achieved at either concentration, even after 24 h of treatment. […] The bactericidal effect was confirmed by complete eradication within 20 h of treatment. […] The killing rate against MRSA strain 2468 was faster than that observed for S. aureus TISTR 517 at all concentrations.
# (§5) Error bars represent the standard deviation of triplicate experiments.
# MRSA strain 2468 [4] = experiment: Time-kill assay; assay type: cell-based, Staphylococcus aureus; conditions: for bacterial reduction rate: triplicate
# Protocol: as §4, §5
# egg albumin = experiment: Albumin denaturation assay (in vitro anti-inflammatory); assay type: biochemical, hen; conditions: PBS pH 7.2, 37 °C 15 min then 70 °C 5 min, OD 660 nm, mean ± SD, n = 3
# Protocol: The reaction mixture consisted of 25 μL of egg albumin (derived from fresh hen eggs), 350 μL of PBS (pH 7.2, 0.1 M), and 250 μL of AMP or PBS (used as a reference). The mixtures were pre-incubated at 37 °C for 15 min, followed by denaturation at 70 °C for 5 min. After a 5 min cooling period on ice, the optical density (OD) at 660 nm was measured using a spectrophotometer. […] The percentage inhibition of albumin denaturation was calculated using the following equation:Inhibition of albumin denaturation (%) = [1 − (Absorbancesample/Absorbancecontrol)] × 100
# MRSA strain 2468 [5] = experiment: Stability to pH variation (activity retention by agar well diffusion); assay type: physicochemical, Staphylococcus aureus; conditions: 32 µg/mL, neutralized before test, agar well diffusion read-out, % of untreated sample, mean ± SD, n = 3
# Protocol: The AMP solution was prepared in sterile purified water and adjusted to a final concentration of 32 µg/mL. To determine thermal stability, the AMP was exposed to temperatures of 30, 40, 60, 80, and 100 °C, as well as to autoclaving at 121 °C and 15 psi for 15 and 30 min. The susceptibility of the AMP to enzymatic degradation was examined by treating it with proteinase K, trypsin, and α-chymotrypsin (each at 1 mg/mL, Sigma-Aldrich, Warren, MI, USA), representing different proteolytic mechanisms. The AMP’s compatibility with surfactants was assessed by incubating it with 1% SDS, 1% CTAB, and 1% Triton X-100 (AppliChem GmbH, Darmstadt, Germany). Additionally, the effect of pH variations on AMP integrity was tested by adjusting the solution to pH 1, 4, 8, 10, and 14. The pH was neutralized to the original pH after incubation before conducting antibacterial activity tests. […] Stability data were expressed as residual activity percentages relative to the untreated sample (mean ± SD), and statistical significance was evaluated using two-way ANOVA and Tukey’s post hoc test, with a p-value < 0.05 considered significant.
compound,measurement,setting,value
CC(C)C[C@H](NC(=O)[C@H](CC(=O)O)NC(=O)[C@H](CS)NC(=O)[C@H](Cc1c[nH]cn1)NC(=O)[C@H](CS)NC(=O)[C@@H]1CCCN1C(=O)[C@@H](NC(=O)[C@H](CC(C)C)NC(=O)[C@H](CS)NC(=O)CNC(=O)[C@H](Cc1c[nH]c2ccccc12)NC(=O)[C@@H](NC(=O)[C@H](CC(=O)O)NC(=O)[C@@H](NC(=O)CNC(=O)[C@H](CS)NC(=O)CNC(=O)CNC(=O)[C@@H](N)CCC(=O)O)C(C)C)[C@@H](C)O)[C@@H](C)O)C(=O)N[C@@H](Cc1ccccc1)C(=O)N[C@@H](CS)C(=O)N[C@H](C(=O)N[C@H](C(=O)O)[C@@H](C)O)[C@@H](C)O [FN33 AMP] (H-EGGCGVDTWGCLTPCHCDLFCTT-OH),average increase in fluorescence intensity vs untreated group,S. aureus TISTR 517 [1]; 0.25× MIC,1.88 ± 0.83 fold
same,average increase in fluorescence intensity vs untreated group,S. aureus TISTR 517 [1]; 0.5× MIC,1.89 ± 0.91 fold
same,average increase in fluorescence intensity vs untreated group,S. aureus TISTR 517 [1]; 1× MIC,1.98 ± 0.92 fold
same,average increase in fluorescence intensity vs untreated group,S. aureus TISTR 517 [1]; 2× MIC,3.54 ± 1.64 fold
same,average increase in fluorescence intensity vs untreated group,S. aureus TISTR 517 [1]; 4× MIC,8.49 ± 4.31 fold
same,average fluorescence increase vs untreated group,MRSA strain 2468 [2]; 0.25× MIC,5.87 ± 0.72 fold
same,average fluorescence increase vs untreated group,MRSA strain 2468 [2]; 0.5× MIC,7.44 ± 0.77 fold
same,average fluorescence increase vs untreated group,MRSA strain 2468 [2]; 1× MIC,7.91 ± 0.48 fold
same,average fluorescence increase vs untreated group,MRSA strain 2468 [2]; 2× MIC,8.49 ± 0.25 fold
same,average fluorescence increase vs untreated group,MRSA strain 2468 [2]; 4× MIC,9.13 ± 0.46 fold
same,bacterial reduction rate,"S. aureus TISTR 517 [3]; 1× MIC, up to 24 h",0.0496 log CFU/h
same,bacterial reduction rate,"S. aureus TISTR 517 [3]; 2× MIC, up to 24 h",0.1322 log CFU/h
same,time to complete eradication,S. aureus TISTR 517 [3]; 4× MIC,≤ 20 h
same,bacterial reduction rate,S. aureus TISTR 517 [3]; 4× MIC,0.2704 log CFU/h
same,bacterial reduction rate,MRSA strain 2468 [4]; 1× MIC,0.1519 log CFU/h
same,time to eradication (no detectable bacterial counts),MRSA strain 2468 [4]; 2× MIC,≤ 20 h
same,bacterial reduction rate,MRSA strain 2468 [4]; 2× MIC,0.2498 log CFU/h
same,time to eradication (no detectable bacterial counts),MRSA strain 2468 [4]; 4× MIC,≤ 12 h
same,bacterial reduction rate,MRSA strain 2468 [4]; 4× MIC,0.4508 log CFU/h
same,% Inhibition of Albumin Denaturation,egg albumin; 50 µg/mL,"4.85 ± 0.93 *^,† %"
same,% Inhibition of Albumin Denaturation,egg albumin; 100 µg/mL,"17.75 ± 0.97 *^,† %"
same,% Inhibition of Albumin Denaturation,egg albumin; 250 µg/mL,34.39 ± 1.82 %
same,% Inhibition of Albumin Denaturation,egg albumin; 500 µg/mL,57.16 ± 1.06 %
same,Antibacterial Activity Retention of FN33 AMP (%) Against MRSA Strain 2468,"MRSA strain 2468 [5]; pH 1, 1 h",74.56 ± 0.69 %
same,Antibacterial Activity Retention of FN33 AMP (%) Against MRSA Strain 2468,"MRSA strain 2468 [5]; pH 1, 6 h",76.51 ± 0.39 %
same,Antibacterial Activity Retention of FN33 AMP (%) Against MRSA Strain 2468,"MRSA strain 2468 [5]; pH 1, 12 h","72.85 ± 0.22 *^,† %"
same,Antibacterial Activity Retention of FN33 AMP (%) Against MRSA Strain 2468,"MRSA strain 2468 [5]; pH 4, 1 h",97.42 ± 0.65 %
same,Antibacterial Activity Retention of FN33 AMP (%) Against MRSA Strain 2468,"MRSA strain 2468 [5]; pH 4, 6 h",96.19 ± 0.21 %
same,Antibacterial Activity Retention of FN33 AMP (%) Against MRSA Strain 2468,"MRSA strain 2468 [5]; pH 4, 12 h","95.30 ± 0.69 *^,† %"
same,Antibacterial Activity Retention of FN33 AMP (%) Against MRSA Strain 2468,"MRSA strain 2468 [5]; pH 8, 1 h",99.53 ± 0.41%
same,Antibacterial Activity Retention of FN33 AMP (%) Against MRSA Strain 2468,"MRSA strain 2468 [5]; pH 8, 6 h",98.03 ± 0.65%
same,Antibacterial Activity Retention of FN33 AMP (%) Against MRSA Strain 2468,"MRSA strain 2468 [5]; pH 8, 12 h",98.76 ± 0.81%
same,Antibacterial Activity Retention of FN33 AMP (%) Against MRSA Strain 2468,"MRSA strain 2468 [5]; pH 10, 1 h",74.63 ± 0.79 %
same,Antibacterial Activity Retention of FN33 AMP (%) Against MRSA Strain 2468,"MRSA strain 2468 [5]; pH 10, 6 h","73.12 ± 1.04 *^,† %"
same,Antibacterial Activity Retention of FN33 AMP (%) Against MRSA Strain 2468,"MRSA strain 2468 [5]; pH 10, 12 h","69.46 ± 0.77 *^,† %"
same,Antibacterial Activity Retention of FN33 AMP (%) Against MRSA Strain 2468,"MRSA strain 2468 [5]; pH 14, 1 h",68.58 ± 0.45 %
same,Antibacterial Activity Retention of FN33 AMP (%) Against MRSA Strain 2468,"MRSA strain 2468 [5]; pH 14, 6 h","66.80 ± 0.27 *^,† %"
same,Antibacterial Activity Retention of FN33 AMP (%) Against MRSA Strain 2468,"MRSA strain 2468 [5]; pH 14, 12 h","65.80 ± 0.84 *^,† %"
